Laboratory results published in PubChem BioAssay (NCI).
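Values below derive from 48-hour exposures of cells grown in 96-well plates, with endpoints linearly interpolated between the two concentrations bracketing the appropriate inhibition level. TGI marks complete inhibition of growth.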

How the values were obtained:
Assay in all cases: NCI-60 cell line screen, 48 h
OVCAR-4 ovarian = tested on: OVCAR-4 ovarian
HL-60(TB) leukemia = tested on: HL-60(TB) leukemia
OVCAR-5 ovarian = tested on: OVCAR-5 ovarian
K-562 leukemia = tested on: K-562 leukemia
MDA-N = tested on: MDA-N
NCI/ADR-RES ovarian = tested on: NCI/ADR-RES ovarian
CAKI-1 renal = tested on: CAKI-1 renal
SK-MEL-5 melanoma = tested on: SK-MEL-5 melanoma
DU-145 prostate = tested on: DU-145 prostate
SK-MEL-2 melanoma = tested on: SK-MEL-2 melanoma
HOP-62 NSCLC = tested on: HOP-62 NSCLC
PC-3 prostate = tested on: PC-3 prostate
IGROV1 ovarian = tested on: IGROV1 ovarian
BT-549 breast = tested on: BT-549 breast
SF-539 CNS = tested on: SF-539 CNS
UACC-257 melanoma = tested on: UACC-257 melanoma
ACHN renal = tested on: ACHN renal
HOP-92 NSCLC = tested on: HOP-92 NSCLC
OVCAR-3 ovarian = tested on: OVCAR-3 ovarian
MALME-3M melanoma = tested on: MALME-3M melanoma
RPMI-8226 leukemia = tested on: RPMI-8226 leukemia
A549 NSCLC = tested on: A549 NSCLC
SK-MEL-28 melanoma = tested on: SK-MEL-28 melanoma
MDA-MB-231 breast = tested on: MDA-MB-231 breast
TK-10 renal = tested on: TK-10 renal
UO-31 renal = tested on: UO-31 renal
HCT-15 colon = tested on: HCT-15 colon
OVCAR-8 ovarian = tested on: OVCAR-8 ovarian
SK-OV-3 ovarian = tested on: SK-OV-3 ovarian
EKVX NSCLC = tested on: EKVX NSCLC
SNB-75 CNS = tested on: SNB-75 CNS
M14 melanoma = tested on: M14 melanoma
T-47D breast = tested on: T-47D breast
KM12 colon = tested on: KM12 colon
HCT-116 colon = tested on: HCT-116 colon
SNB-19 CNS = tested on: SNB-19 CNS
NCI-H226 lung = tested on: NCI-H226 lung
COLO 205 colon = tested on: COLO 205 colon
HT29 colon = tested on: HT29 colon
MDA-MB-435 = tested on: MDA-MB-435
SF-295 CNS = tested on: SF-295 CNS
HCC-2998 colon = tested on: HCC-2998 colon
CCRF-CEM leukemia = tested on: CCRF-CEM leukemia
MCF7 breast = tested on: MCF7 breast
NCI-H460 lung = tested on: NCI-H460 lung
MOLT-4 leukemia = tested on: MOLT-4 leukemia
SR leukemia = tested on: SR leukemia
SW-620 colon = tested on: SW-620 colon
HS 578T breast = tested on: HS 578T breast
SN12C renal = tested on: SN12C renal
NCI-H522 lung = tested on: NCI-H522 lung
NCI-H23 lung = tested on: NCI-H23 lung
A498 renal = tested on: A498 renal
UACC-62 melanoma = tested on: UACC-62 melanoma
U251 CNS = tested on: U251 CNS
RXF 393 renal = tested on: RXF 393 renal
SF-268 CNS = tested on: SF-268 CNS
786-0 renal = tested on: 786-0 renal

O=C(NCCCNCCCNC(=O)c1cc(-c2ccccc2)nc2ccccc12)c1cc(-c2ccccc2)nc2ccccc12
TGI (OVCAR-4 ovarian): 3.32 µM
TGI (HL-60(TB) leukemia): 3.16 µM
TGI (OVCAR-5 ovarian): 3.53 µM
TGI (K-562 leukemia): 3.53 µM
TGI (MDA-N): 3.13 µM
TGI (NCI/ADR-RES ovarian): 4.13 µM
TGI (CAKI-1 renal): 3.7 µM
TGI (SK-MEL-5 melanoma): 3.45 µM
TGI (DU-145 prostate): 3.08 µM
TGI (SK-MEL-2 melanoma): 3.55 µM
TGI (HOP-62 NSCLC): 2.16 µM
TGI (PC-3 prostate): 2.99 µM
TGI (IGROV1 ovarian): 3.19 µM
TGI (BT-549 breast): > 23.7 µM
TGI (SF-539 CNS): > 100 µM
TGI (UACC-257 melanoma): 3.73 µM
TGI (ACHN renal): 3.2 µM
TGI (HOP-92 NSCLC): 4.17 µM
TGI (OVCAR-3 ovarian): 3.23 µM
TGI (MALME-3M melanoma): 3.5 µM
TGI (RPMI-8226 leukemia): 4.78 µM
TGI (A549 NSCLC): 3.34 µM
TGI (SK-MEL-28 melanoma): 3.09 µM
TGI (MDA-MB-231 breast): 3.14 µM
TGI (TK-10 renal): 3.22 µM
TGI (UO-31 renal): 3.38 µM
TGI (HCT-15 colon): > 100 µM
TGI (OVCAR-8 ovarian): > 100 µM
TGI (SK-OV-3 ovarian): 4.95 µM
TGI (EKVX NSCLC): 3.32 µM
TGI (SNB-75 CNS): 2.96 µM
TGI (M14 melanoma): 3.19 µM

CCCN1CCC(=O)N(CCC(F)(F)C(F)(F)C(F)(F)C(F)(F)C(F)(F)C(F)(F)F)C1=S
TGI (T-47D breast): > 100 µM
TGI (OVCAR-4 ovarian): > 100 µM
TGI (HL-60(TB) leukemia): > 100 µM
TGI (OVCAR-5 ovarian): > 100 µM
TGI (KM12 colon): > 100 µM
TGI (K-562 leukemia): > 100 µM
TGI (HCT-116 colon): > 100 µM
TGI (SNB-19 CNS): > 100 µM
TGI (NCI-H226 lung): > 100 µM
TGI (MDA-N): > 100 µM
TGI (COLO 205 colon): > 100 µM
TGI (HT29 colon): > 100 µM
TGI (MDA-MB-435): > 100 µM
TGI (CAKI-1 renal): > 100 µM
TGI (SF-295 CNS): > 100 µM
TGI (SK-MEL-5 melanoma): > 100 µM
TGI (DU-145 prostate): > 100 µM
TGI (HOP-62 NSCLC): > 100 µM
TGI (PC-3 prostate): > 100 µM
TGI (IGROV1 ovarian): > 100 µM
TGI (HCC-2998 colon): > 100 µM
TGI (BT-549 breast): > 100 µM
TGI (CCRF-CEM leukemia): > 100 µM
TGI (MCF7 breast): > 100 µM
TGI (SF-539 CNS): > 100 µM
TGI (NCI-H460 lung): > 100 µM
TGI (UACC-257 melanoma): > 100 µM
TGI (MOLT-4 leukemia): > 100 µM
TGI (SR leukemia): > 100 µM
TGI (SW-620 colon): > 100 µM
TGI (HS 578T breast): > 100 µM
TGI (ACHN renal): > 100 µM
TGI (HOP-92 NSCLC): > 100 µM
TGI (SN12C renal): > 100 µM
TGI (OVCAR-3 ovarian): > 100 µM
TGI (MALME-3M melanoma): > 100 µM
TGI (A549 NSCLC): > 100 µM
TGI (SK-MEL-28 melanoma): > 100 µM
TGI (MDA-MB-231 breast): > 100 µM
TGI (TK-10 renal): > 100 µM
TGI (NCI-H522 lung): > 100 µM
TGI (UO-31 renal): > 100 µM
TGI (NCI-H23 lung): > 100 µM
TGI (A498 renal): > 100 µM
TGI (UACC-62 melanoma): > 100 µM
TGI (OVCAR-8 ovarian): > 100 µM
TGI (SK-OV-3 ovarian): > 100 µM
TGI (U251 CNS): > 100 µM
TGI (RXF 393 renal): > 100 µM
TGI (EKVX NSCLC): > 100 µM
TGI (SF-268 CNS): > 100 µM
TGI (786-0 renal): > 100 µM
TGI (SNB-75 CNS): > 100 µM
TGI (M14 melanoma): > 100 µM
